{"source": "patent US20230346784A1", "about": "(priority 2020, published 2023)", "key": {"[1]": {"tested_on": "APH", "assay": "APH inhibition / IC50 threshold used with simulated concentrations (FIG. 11)", "set-up": "species or system human", "conditions": "dotted line in FIG. 11, serum ALXN2040 concentration"}, "[2]": {"tested_on": "TF1PIGAnull cells", "assay_type": "cell-based, human"}, "[3]": {"tested_on": "C3c deposition on TF1PIGAnull cells", "assay_type": "cell-based, human"}, "[4]": {"tested_on": "C5b-9 deposition on TF1PIGAnull cells", "assay_type": "cell-based, human"}, "[5]": {"tested_on": "SARS-CoV-2 spike proteins binding to TF1PIGAnull cells", "assay": "Flow cytometry of coronavirus protein binding to TF1PIGAnull cells (heparan sulfate blockade, sialidase treatment)", "set-up": "species or system human", "conditions": "sulfate sodium salt; for binding of S1 subunit to TF1PIGAnull cells: 5 μg/mL His-tagged S1 co-incubated with 2 mg/mL heparan sulfate solution; for binding of S2 subunit to TF1PIGAnull cells: 5 μg/mL His-tagged S2 co-incubated with 2 mg/mL heparan sulfate solution"}}, "note": "“Also recorded” adds a separate entry of the source.", "data": [{"compound": "CC(=O)c1nn(CC(=O)N2C[C@H](F)C[C@H]2C(=O)Nc2cccc(Br)n2)c2ccc(-c3cnc(C)nc3)cc12", "note": "[Compound 1, danicopan]", "values": [{"measurement": "IC50 value", "setting": "[1]", "value": 235, "unit": "ng/mL"}]}, {"compound": "CC(=O)c1nn(CC(=O)N2[C@H]3C[C@]4(C[C@@H]24)Cn2cc(nn2)COCc2ccc(Br)nc2NC3=O)c2ccc(-c3cnc(C)nc3)cc12", "note": "[Compound 2]", "values": [{"measurement": "cell killing in the mHam assay induced by S1 and S2", "setting": "[2]", "value": "inhibited; also recorded: prevented cell death"}, {"measurement": "C3c deposition induced by S1 and S2", "setting": "[3]", "value": "more potent in blocking C3c deposition; also recorded: inhibit"}, {"measurement": "S1-induced C3c deposition", "setting": "[3]", "value": "blocking; also recorded: completely blocked"}, {"measurement": "S2-induced C3c deposition", "setting": "[3]", "value": "blocking"}, {"measurement": "C5b-9 deposition induced by S1 and S2", "setting": "[4]", "value": "inhibit"}, {"measurement": "S1-induced C5b-9 deposition", "setting": "[4]", "value": "blocking; also recorded: completely blocked"}, {"measurement": "S2-induced C5b-9 deposition", "setting": "[4]", "value": "blocking"}]}, {"compound": "Heparan sulfate sodium salt", "values": [{"measurement": "binding of S1 subunit to TF1PIGAnull cells", "setting": "[5]; listed as HS", "value": "significantly blocked"}, {"measurement": "binding of S1 subunit to TF1PIGAnull cells", "setting": "[5]", "value": "completely blocked"}, {"measurement": "binding of S2 subunit to TF1PIGAnull cells", "setting": "[5]; listed as HS", "value": "significantly blocked"}, {"measurement": "binding of S2 subunit to TF1PIGAnull cells", "setting": "[5]", "value": "completely blocked"}]}]}
